These results are taken from article PMC11085872, “Structure-Based Design of Novel Thiazolone[3,2-a]pyrimidine Derivatives as Potent RNase H Inhibitors for HIV Therapy” (Molecules, 2024).

Data set [1] has as its target T1, HIV-1 RT-associated RNase H (Human immunodeficiency virus type 1 group M subtype B, UniProt P03366).
T1 construct: His-tagged p66/p51 HIV-1 RT group M subtype B; His tag; made in house; host or cells: Escherichia coli strain M15 (plasmid p6HRT-prot)
The data set is described as follows: RNase H polymerase-independent cleavage assay. Format: biochemical. The settings on record: for IC50: IC50, compound concentration required to reduce HIV-1 RT-associated RNase H activity by 50%, recombinant HIV-1 wt RT, hybrid RNA/DNA substrate, 37 °C, 1 hour; for remaining activity at 100 µM: read-out: Percentage of the control activity measured at the indicated compound concentration. Here is the method:
The Ar^1 and Ar^2 aromatic segments of the molecule also approach the protein surface, through hydrophobic interactions. These findings provide important information for further structural optimization. All these newly designed thiazolone[3,2-a]pyrimidine derivatives were evaluated for their inhibitory activity against HIV RT-associated RNase H, using the diketo acid RDS1643 as positive control. […] The decrease in activity observed in compounds containing a sulfonic acid group might be attributed to the excessively strong acidity of the sulfonic acid group, which could protonate the diazo group within the molecule. […] When Ar^2 was changed from a phenyl group to a naphthyl group, the activity of compound 10f gained a great improvement over that of compound 10k. […] And when a negatively charged polar group was present at the 2-position of Ar^2, the inhibitory activity is enhanced. […]
3. Biology Experimental section
3.1 Expression and purification of recombinant HIV-1 RTs.
His-tagged p66/p51 HIV-1 RT group M subtype B coded in a p6HRT-prot plasmid was expressed in the Escherichia coli strain M15.1 Heterodimeric RTs were expressed essentially and purified as described.2 E. coli cells harboring the expression vector were cultured until reaching an optical density at 600 nm of 0.7. Induction of protein expression was achieved by treating the cells with 1.7 mM isopropyl β-D-1-thiogalactopyranoside (IPTG) for a duration of 4 hours. The subsequent purification of the protein was performed using a BioLogic LP system (BioRad) employing a combination of immobilized metal affinity chromatography and ion exchange […]
To initiate the purification process, the cell pellets were resuspended in lysis buffer at a ratio of 1:2 (cell pellet volume: lysis buffer volume). The lysis buffer used consisted of 50 mM sodium phosphate buffer with a pH of 7.8, supplemented with 0.5 mg/ml lysozyme. The resuspended cells were incubated on ice for 20 minutes. Following this, NaCl was added to achieve a final concentration of 0.3 M. The cells were then subjected to sonication, with four cycles of 60 seconds each, alternating between one second on and one second off. Subsequently, the cell lysate was centrifuged at 30, 000×g for 1 […]
The supernatant obtained from the centrifugation step was loaded onto a Ni2+-NTA-Sepharose column that had been pre-equilibrated with a loading buffer consisting of 50 mM sodium phosphate buffer (pH 7.8), 0.3 M NaCl, 10% glycerol, and 10 mM imidazole. The column was washed with a buffer containing 50 mM sodium phosphate buffer (pH 6.0), 0.3 M NaCl, 10% glycerol, and 80 mM imidazole. The target protein, RT, was eluted using an imidazole gradient ranging from 0.08 M to 0.5 M in the wash buffer. Fractions containing the enzyme were collected and combined, and then diluted 1:1 with 50 mM sodium phosphate buffer (pH 7.0) containing 10% glycerol. The diluted protein sample was loaded onto a Hi-trap heparin HP column that had been pre-equilibrated with 10 column volumes of a loading buffer consisting of 50 mM sodium phosphate buffer (pH 7.0), 10% glycerol, and 150 mM NaCl. The column was washed with the loading buffer, and the RT enzyme was eluted using Elute Buffer 2, which
(1 picture or pasted object on this page, not shown here) […]
comprised 50 mM sodium phosphate buffer (pH 7.0), 10% glycerol, and 1 M NaCl.
The eluted fractions containing the purified protein were collected, and the protein was subsequently dialyzed and stored in a buffer composed of 50 mM Tris-HCl (pH 7.0), 25 mM NaCl, 1 mM EDTA, and 50% glycerol. The catalytic activities of the purified protein samples were determined, and aliquots were stored at -80 °C for further use.
3.2 RNase H Polymerase-Independent Cleavage Assay
The HIV-1 RT-associated RNase H activity was measured as described.3 In summary, the reaction was performed in a black 96-well plate with a total volume of 100 μL. The reaction mix consisted of 50 mM Tris HCl (pH 7.8), 6 mM MgCl2, 1 mM dithiothreitol […]

`COC(=O)C1=C(C)N=C2SC(=NNc3ccccc3)C(=O)N2C1c1ccccc1` (stereo not drawn) [Compound 10j, Methyl 7-methyl-3-oxo-5-phenyl-2-(2-phenylhydrazineylidene)-2,3-dihydro-5H-thiazolo[3,2-a]pyrimidine-6-carboxylate]: the melting point (commonly the temperature, or range, at which the solid turns liquid) was in the range of 124 to 127 °C. Also, in data set [1], the IC50 (usually the concentration that gives 50% inhibition) was found to be 21.45 ± 0.1 µM.
The matching figures for `COC(=O)C1=C(C)N=C2SC(=NNc3ccccc3O)C(=O)N2C1c1ccccc1` (stereo not drawn) [Compound 10a, Methyl 2-(2-(2-hydroxyphenyl)hydrazineylidene)-7-methyl-3-oxo-5-phenyl-2,3-dihydro-5H-thiazolo[3,2-a]pyrimidine-6-carboxylate]: 227 to 229 °C and 18.2 ± 0.85 µM.
Regarding `COC(=O)C1=C(C)N=C2SC(=NNc3ccc(OC)cc3S(=O)(=O)O)C(=O)N2C1c1ccc(OC)c(OC)c1OC` (stereo not drawn) [Compound 11f, 5-Methoxy-2-(2-(6-(methoxycarbonyl)-7-methyl-3-oxo-5-(2,3,4-trimethoxyphenyl)-5H-thiazolo[3,2-a]pyrimidin-2(3H)-ylidene)hydrazineyl)benzenesulfonic acid], the melting point lay in the range of 244 to 246 °C. Also, in data set [1], the IC50 is above 100 µM and the remaining activity at 100 µM amounted to 61%.
Regarding `COC(=O)C1=C(C)N=C2SC(=NNc3cccc(C(=O)OC)c3)C(=O)N2C1c1ccccc1` (stereo not drawn) [Compound 10n, Methyl 2-(2-(3-(methoxycarbonyl)phenyl)hydrazineylidene)-7-methyl-3-oxo-5-phenyl-2,3-dihydro-5H-thiazolo[3,2-a]pyrimidine-6-carboxylate], the melting point was in the range of 214 to 216 °C. Also, the IC50 in data set [1] was 7.03 ± 0.17 µM.
The compound `COC(=O)C1=C(C)N=C2SC(=NNc3cccc([N+](=O)[O-])c3)C(=O)N2C1c1ccc(OC)c(OC)c1OC` (stereo not drawn) [Compound 11d, Methyl 7-methyl-2-(2-(3-nitrophenyl)hydrazineylidene)-3-oxo-5-(2,3,4-trimethoxyphenyl)-2,3-dihydro-5H-thiazolo[3,2-a]pyrimidine-6-carboxylate] returned a melting point of 236 to 238 °C. The IC50 in data set [1] was determined as 10.1 ± 1.64 µM.
`COC(=O)C1=C(C)N=C2S/C(=N\Nc3ccccc3C(=O)OC)C(=O)N2C1c1ccccc1` (stereo not drawn) [Compound 10d, Methyl 2-((2-(methoxycarbonyl)phenyl)diazenyl)-7-methyl-3-oxo-5-phenyl-2,3-dihydro-5H-thiazolo[3,2-a]pyrimidine-6-carboxylate] came in with a melting point of 184 to 186 °C. Moreover, the IC50 in data set [1] amounted to 8.27 ± 0.39 µM.
On the same counts, the results for `COC(=O)C1=C(C)N=C2SC(=NNc3ccccc3C(C)=O)C(=O)N2C1c1ccccc1` (stereo not drawn) [Compound 10g, Methyl 2-(2-(2-acetylphenyl)hydrazineylidene)-7-methyl-3-oxo-5-phenyl-2,3-dihydro-5H-thiazolo[3,2-a]pyrimidine-6-carboxylate] are 199 to 202 °C and 9.01 ± 2.17 µM.
Compound `COC(=O)C1=C(C)N=C2SC(=NNc3ccccc3S(=O)(=O)O)C(=O)N2C1c1ccc(OC)c(OC)c1OC` (stereo not drawn) [Compound 11e, 2-(2-(6-(Methoxycarbonyl)-7-methyl-3-oxo-5-(2,3,4-trimethoxyphenyl)-5H-thiazolo[3,2-a]pyrimidin-2(3H)-ylidene)hydrazineyl)benzenesulfonic acid] registered a melting point of 238 to 240 °C. In data set [1], the IC50 is above 100 µM and the remaining activity at 100 µM was determined as 97%.
